Results: ChEMBL document CHEMBL1137099, “Synthesis of novel rhinacanthins and related anticancer naphthoquinone esters” (J Med Chem, 2004)
pIC50: −log10 of the molar value.

How the values were obtained:
Format in all cases: functional, cell-based
HeLa = experiment: Concentration required to inhibit growth of human cervical carcinoma (HeLa) cell line
KB [1] = experiment: Concentration required to inhibit growth of human epidermoid carcinoma (KB) cell line
Vero = experiment: Concentration required to inhibit growth of african green monkey kidney cell line; conditions: Chlorocebus sabaeus
HepG2 = experiment: Concentration required to inhibit growth of human hepatocellular carcinoma (HepG2) cell line
KB [2] = experiment: Concentration required to inhibit growth of human epidermoid carcinoma (KB) cell line; IA= Inactive

Row | SMILES | pIC50 (HeLa) | pIC50 (KB [1]) | pIC50 (HepG2) | IC50 (KB [2]) | pIC50 (Vero)
1 | COc1cc(C(=O)OCC(C)CC2=C(O)C(=O)c3ccccc3C2=O)c(O)c2ccccc12 (centres undefined) | 5.55 | 5.67 | 5.50 | – | > 6.66
2 | COc1cc(C(=O)OCC(C)(C)CC2=C(O)C(=O)c3ccccc3C2=O)c(OC)c2ccccc12 | 5.96 | 6.46 | 6.01 | – | 4.49
3 | CC(C)(COC(=O)c1ccccc1O)CC1=C(O)C(=O)c2ccccc2C1=O | 5.36 | 5.33 | 5.26 | – | < 3.87
4 | COc1ccc(OC)c(C(=O)OCC(C)CC2=C(O)C(=O)c3ccccc3C2=O)c1 (centres undefined) | 4.38 | 4.43 | 4.28 | – | 5.39
5 | COc1cc(C(=O)OCC(C)CC2=C(O)C(=O)c3ccccc3C2=O)c(OC)c2ccccc12 (centres undefined) | 5.42 | 5.45 | 5.44 | – | 5.23
6 | CC(C)(COC(=O)c1ccc2ccccc2c1O)CC1=CC(=O)c2ccccc2C1=O | 4.34 | 4.42 | 4.32 | – | 4.04
7 | CC(COC(=O)c1ccc2ccccc2c1)CC1=CC(=O)c2ccccc2C1=O (centres undefined) | 4.42 | 4.54 | 4.56 | – | 4.36
8 | COC1=C(CC(C)(C)COC(=O)c2cc(OC)ccc2OC)C(=O)c2ccccc2C1=O | 4.41 | 4.83 | 4.39 | – | 4.87
9 | O=C(O)C1=CCc2ccccc2C1O (centres undefined) | – | – | – | Not Active | –
10 | CC(C)(COC(=O)c1ccc2ccccc2c1)CC1=C(O)C(=O)c2ccccc2C1=O | 5.93 | 5.80 | 5.89 | – | 5.82
11 | O=C1C(=O)c2ccccc2C(O)=C1CCCOC(=O)c1ccc2ccccc2c1 | 4.80 | 4.84 | 4.81 | – | 4.62
12 | COc1cc(C(=O)OCCCC2=CC(=O)c3ccccc3C2=O)c(O)c2ccccc12 | 4.34 | 4.03 | 4.19 | – | 4.31
13 | CC(COC(=O)c1ccc2ccccc2c1)CC1=C(O)C(=O)c2ccccc2C1=O (centres undefined) | 5.37 | 5.45 | 5.43 | – | 5.74
14 | COc1ccc(O)c(C(=O)OCC(C)(C)CC2=C(O)C(=O)c3ccccc3C2=O)c1 | 5.48 | 5.93 | 5.79 | – | 4.94
15 | O=C1C(=O)c2ccccc2C(O)=C1CCCOC(=O)c1ccc2ccccc2c1O | 4.82 | 4.91 | 4.79 | – | 3.91
16 | CC(C)(COC(=O)c1cc(O)c2ccccc2c1O)CC1=C(O)C(=O)c2ccccc2C1=O | 4.91 | 5.37 | 4.89 | – | 4.81

Row | SMILES | pIC50 (HeLa) | pIC50 (KB [1]) | pIC50 (HepG2) | IC50 (KB [2]) | pIC50 (Vero)
17 | CC(C)(COC(=O)c1ccccc1)CC1=C(O)C(=O)c2ccccc2C1=O | 5.52 | 5.82 | 5.31 | – | 4.31
18 | COc1c(C(=O)OCC(C)CC2=C(O)C(=O)c3ccccc3C2=O)ccc2ccccc12 (centres undefined) | 6.42 | 6.18 | 5.98 | – | 6.01
19 | CC(COC(=O)c1ccc2ccccc2c1O)CC1=CC(=O)c2ccccc2C1=O (centres undefined) | 4.33 | 4.41 | 4.38 | – | 4.42
20 | CC(C)(COC(=O)c1cc(O)ccc1O)CC1=C(O)C(=O)c2ccccc2C1=O | 4.34 | 4.19 | 4.32 | – | 4.11
21 | COc1ccc(O)c(C(=O)OCC(C)CC2=C(O)C(=O)c3ccccc3C2=O)c1 (centres undefined) | 5.34 | 5.39 | 5.30 | – | 4.85
22 | COc1cc(C(=O)OCCCC2=C(O)C(=O)c3ccccc3C2=O)c(O)c2ccccc12 | 5.37 | 5.39 | 5.37 | – | 4.39
23 | CC(C)(CO)CC1=C(O)C(=O)c2ccccc2C1=O | – | 4.95 | – | – | –
24 | COC1=C(CC(C)(C)COC(=O)c2ccc3ccccc3c2OC)C(=O)c2ccccc2C1=O | 5.02 | 5.00 | 4.94 | – | 5.22
25 | COc1ccccc1C(=O)OCC(C)CC1=C(O)C(=O)c2ccccc2C1=O (centres undefined) | 5.39 | 5.79 | 5.39 | – | 4.53
26 | CC(C)(COC(=O)c1ccc2ccccc2c1O)CC1=C(O)C(=O)c2ccccc2C1=O | > 6.64 | > 6.64 | 6.49 | – | 6.00
27 | COc1c(C(=O)OCC(C)(C)CC2=CC(=O)c3ccccc3C2=O)ccc2ccccc12 | 4.43 | 4.90 | 4.84 | – | 4.52
28 | O=C1C(O)=C(CCCO)C(=O)c2ccccc21 | – | – | – | Not Active | –
29 | COc1c(C(=O)OCC(C)(C)CC2=C(O)C(=O)c3ccccc3C2=O)ccc2ccccc12 | 6.64 | > 6.66 | 6.62 | – | 4.75
30 | COc1ccccc1C(=O)OCC(C)(C)CC1=C(O)C(=O)c2ccccc2C1=O | 5.39 | 5.73 | 5.33 | – | 5.05
31 | COc1cc(C(=O)OCCCC2=CC(=O)c3ccccc3C2=O)c(OC)c2ccccc12 | < 3.63 | < 3.63 | < 3.63 | – | < 3.63
32 | COc1cccc2c1C(=O)c1c(O)c3c(c(O)c1C2=O)C[C@@](O)(C(=O)CO)C[C@@H]3O[C@H]1C[C@H](N)[C@H](O)[C@H](C)O1 [DOXORUBICIN] | 6.48 | 7.52 | 6.40 | – | 4.62

Continued, in another order:

Row | pIC50 (HeLa) | pIC50 (KB [1]) | pIC50 (HepG2) | IC50 (KB [2]) | SMILES | pIC50 (Vero)
33 | – | – | – | Not Active | COC1C=C(C(=O)O)C(OC)c2ccccc21 (centres undefined) | –
34 | 5.32 | 5.34 | 5.07 | – | CC(COC(=O)c1ccccc1)CC1=C(O)C(=O)c2ccccc2C1=O (centres undefined) | 5.64
35 | 4.40 | 4.58 | 4.40 | – | COc1c(C(=O)OCC(C)CC2=CC(=O)c3ccccc3C2=O)ccc2ccccc12 (centres undefined) | 4.69
36 | 4.49 | 4.89 | 4.45 | – | COc1cc(C(=O)OCCCC2=C(O)C(=O)c3ccccc3C2=O)c(OC)c2ccccc12 | 4.12
37 | 5.40 | 5.97 | 6.00 | – | CC(COC(=O)c1ccc2ccccc2c1O)CC1=C(O)C(=O)c2ccccc2C1=O (centres undefined) | 6.15
38 | 4.32 | 4.30 | 4.27 | – | COc1c(C(=O)OCCCC2=CC(=O)c3ccccc3C2=O)ccc2ccccc12 | 4.40
39 | 6.52 | > 6.66 | 6.42 | – | COc1cc(C(=O)OCC(C)(C)CC2=C(O)C(=O)c3ccccc3C2=O)c(O)c2ccccc12 | 4.90
40 | 4.38 | 4.49 | 4.34 | – | CC(C)(COC(=O)c1ccc2ccccc2c1)CC1=CC(=O)c2ccccc2C1=O | 4.48
41 | 4.99 | 5.33 | 4.93 | – | CC(COC(=O)c1ccccc1O)CC1=C(O)C(=O)c2ccccc2C1=O (centres undefined) | 4.12
42 | 4.35 | 4.04 | 3.90 | – | COC1=C(CC(C)(C)COC(=O)c2ccc3ccccc3c2)C(=O)c2ccccc2C1=O | 4.32
43 | 4.89 | 4.86 | 4.99 | – | O=C(OCCCC1=CC(=O)c2ccccc2C1=O)c1ccc2ccccc2c1 | 4.83
44 | 4.37 | 4.47 | 4.34 | – | COc1c(C(=O)OCCCC2=C(O)C(=O)c3ccccc3C2=O)ccc2ccccc12 | 3.92
45 | – | 4.23 | – | – | CC(CO)CC1=C(O)C(=O)c2ccccc2C1=O (centres undefined) | –
46 | – | – | – | Not Active | COC1C(C(=O)O)=CCc2ccccc21 (centres undefined) | –
47 | – | – | – | Not Active | O=C(O)C1=CCc2ccccc2C1 | –
48 | 4.39 | 4.37 | 4.33 | – | COC1=C(CC(C)(C)COC(=O)c2ccccc2)C(=O)c2ccccc2C1=O | 4.46
49 | < 3.59 | < 3.59 | < 3.59 | – | O=C1C=C(CCCOC(=O)c2ccc3ccccc3c2O)C(=O)c2ccccc21 | < 3.59
50 | 5.47 | 5.47 | 5.45 | – | COc1ccc(OC)c(C(=O)OCC(C)(C)CC2=C(O)C(=O)c3ccccc3C2=O)c1 | 5.04
